# Columns and labels:
# [1] = tested on: high voltage-activated potassium currents in MNTB neurons (presumed to be mediated by Kv3.1 channels); test: Potassium currents recorded from MNTB neurons, in vitro (Example 91); assay type: cell-based, mouse; settings: 10 microM in the continuing presence of TEA (1 mM); voltage steps to +40 mV
# Experimental: Male CBA/Ca mice (aged 12-16 days) were used in these experiments (in accordance with the UK Animals Scientific Procedures Act, 1986). Brain slices containing the medial nucleus of the trapezoid body (MNTB) were prepared as described previously (Brew and Forsythe, 2005).
# Chemicals and reagents were purchased from Sigma, (Poole, UK) unless otherwise noted. EXAMPLE 19 was dissolved in DMSO and diluted in ACSF to the required concentration.
# Recordings from identified MNTB neurons were conducted as previously described (Brew and Forsythe, 2005). Slices was placed in a superfusion chamber on an inverted microscope stage and continuously perfused with gassed (95% O2-5% CO2) ACSF at a rate of 1 ml min^−1 at room temperature. Whole-cell recordings were made from visually identified MNTB neurons using an […] amplifier (Molecular Devices, Union City, Calif., USA). Patch solution comprised (in mM) potassium gluconate (97.5), KCl (32.5), Hepes (40), EGTA (5), MgCl2 (1), Na2 phosphocreatin (5), pH 7.2 with KOH. Pipettes had resistances of 3-5 MΩ and series resistances were 6-10 MΩ (compensated by 70%, 10 μs lag). Access resistance was frequently monitored and the recording discarded if increases were more than 2 MΩ. […]
# [2] = Blood concentrations in satellite animals of the electroshock seizure study; assay type: in vivo, rat; design: unbound concentration in blood: unit not given here; settings: for unbound concentration in blood: rat
# Experimental: Testing involved determining the threshold for tonic hindlimb extensor seizures using a Hugo Sachs Electronik stimulator which delivers a constant current of 0.3 second duration, 50 Hz, sinewave form, fully adjustable between 1 and 300 mA. Stimuli were delivered via corneal electrodes (Stean T O, Atkins A R, Heidbreder C A, Quinn L P, Trail B K, Upton N. (2005) Br J Pharmacol. 144(5):628-35). Seizure threshold was determined using the ‘up and down’ method of Kimball et al. (1957)(Kimball A W, Burnett W T Jr, Doherty D G. (1957) Radiat Res. 7(1):1-12). The first animal tested in each group was stimulated with a current that might be expected to be close to the threshold for induction of a seizure. If a tonic seizure was not induced, then the next animal in the group received a stimulus 5 mA higher. If a tonic seizure was induced, then the next animal received a stimulus 5 mA lower. This is repeated for all animals within the control (vehicle) group. In the case of groups treated with a test compound steps of 5 to 10 mA were used. At the end of the study, blood samples were taken for analysis of the drug concentrations in this compartment (n=4/group).
# Blood concentrations of Compound 19 measured in satellite animals 2 hours after dosing were 5.3 and 9.11 μg/mL following the doses of 30 and 60 mg/kg p.o., respectively.
smiles,measurement,setting,value
"CC[C@H]1NC(=O)N(c2ccc(Oc3ccc(C)c(OC)c3)nc2)C1=O [Example 19, (5R)-5-ethyl-3-(6-{[4-methyl-3-(methyloxy)phenyl]oxy}-3-pyridinyl)-2,4-imidazolidinedione]",reversal of TEA-induced reduction of high voltage-activated potassium current amplitude,[1],reversed
same,concentration at 2 h,"[2]; CD, whole blood, oral, rat satellite animals, 2 hours after 60 mg/kg p.o.",9110 ng/mL
same,unbound concentration in blood,[2]; 2 hours after 30 mg/kg p.o.,1.3
same,unbound concentration in blood,[2]; 2 hours after 60 mg/kg p.o.,2.21

# Reference: patent US9849131B2 (AUTIFONY THERAPEUTICS LIMITED, priority 2009, dated 2017)
